Read-outs that look alike come from different tables or passages of the source.
Experiments:
[1] = test system: Glomerella lagenarium (Colletotrichum lagenarium); experiment: Glomerella lagenarium (Colletotrichum lagenarium)/Liquid Culture (Anthracnose); type: cell-based; conditions: Colletotrichum orbiculare, read-out: control of Glomerella lagenarium
[2] = test system: Botryotinia fuckeliana (Botrytis cinerea); experiment: Botryotinia fuckeliana (Botrytis cinerea)/Liquid Culture (Gray Mould); type: cell-based; conditions: read-out: control of Botryotinia fuckeliana
[3] = test system: Fusarium culmorum; experiment: microbe, parasite or virus in culture; type: cell-based; conditions: read-out: control of Fusarium culmorum
[4] = test system: Magnaporthe grisea (Pyricularia oryzae); experiment: microbe, parasite or virus in culture; type: cell-based; conditions: read-out: control of Magnaporthe grisea
[5] = test system: Monographella nivalis (Microdochium nivale); experiment: Monographella nivalis (Microdochium nivale)/Liquid Culture (Foot Rot Cereals); type: cell-based; conditions: read-out: control of Monographella nivalis
[6] = test system: Gaeumannomyces graminis; experiment: Gaeumannomyces graminis/Liquid Culture (Take-all of Cereals); type: cell-based; conditions: read-out: control of Gaeumannomyces graminis
[7] = test system: Fusarium culmorum; experiment: whole plant or invertebrate; type: in vivo; conditions: in Triticum aestivum, read-out: control of Fusarium culmorum
[8] = test system: Sclerotinia sclerotiorum; experiment: Sclerotinia sclerotiorum/Liquid Culture (Cottony Rot); conditions: read-out: control of Sclerotinia sclerotiorum
Experimental: Mycelia fragments of a newly grown liquid culture of the fungus are directly mixed into nutrient broth (Vogels broth). After placing a (DMSO) solution of test compound into a microtiter plate (96-well format) the nutrient broth containing the fungal material is added. The test plates are incubated at 24° C. and the inhibition of growth is determined photometrically 3-4 days after application.

[9] = test system: Magnaporthe grisea (Pyricularia oryzae); experiment: whole plant or invertebrate; type: in vivo; conditions: foliar, read-out: control of Magnaporthe grisea
[10] = 200 ppm, liquid culture, compared to untreated control, 3-4 days after application
[11] = 200 ppm, liquid culture, compared to untreated control, 4-5 days after application

Structure (SMILES) | melting point | inhibition of growth at 200 ppm [1, 10] | inhibition of growth at 200 ppm [2, 10] | inhibition of growth at 200 ppm [3] | inhibition of growth at 200 ppm [4] | inhibition of growth at 200 ppm [5, 11] | inhibition of growth at 200 ppm [6, 11] | pest or weed control at 200 ppm [7] | inhibition of growth at 200 ppm [1] | inhibition of growth at 200 ppm [2] | inhibition of growth at 20 ppm [8] | inhibition of growth at 200 ppm [5] | inhibition of growth at 200 ppm [6] | pest or weed control at 200 ppm [9]
C=C(C)CC(C)(Cc1ccccc1)C(=O)Nc1cnc2c(F)cccc2c1C (stereo not drawn) [Compound E-65, 2-benzyl-N-(8-fluoro-4-methyl-3-quinolyl)-2,4-dimethyl-pent-4-enamide] | 105 to 109 °C | ≥ 80% | ≥ 80% | ≥ 80% | ≥ 80% | ≥ 80% | ≥ 80% | – | – | – | – | – | – | –
CC(F)(F)CC(C)(Cc1ccccc1)C(=O)Nc1cnc2c(F)cccc2c1 (stereo not drawn) [Compound E-68, 2-benzyl-4,4-difluoro-N-(8-fluoro-3-quinolyl)-2-methyl-pentanamide] | 156 to 158 °C | ≥ 80% | ≥ 80% | ≥ 80% | ≥ 80% | ≥ 80% | ≥ 80% | ≥ 80% | – | – | – | – | – | –
CC1(CC(C)(Cc2ccccc2)C(=O)Nc2cnc3c(F)cccc3c2)CC1 (stereo not drawn) [Compound E-70, 2-benzyl-N-(8-fluoro-3-quinolyl)-2-methyl-3-(1-methylcyclopropyl) propanamide] | 149 to 151 °C | ≥ 80% | ≥ 80% | ≥ 80% | ≥ 80% | – | ≥ 80% | – | – | – | – | – | – | –
C=C(F)CC(C)(Cc1ccccc1)C(=O)Nc1cnc2c(F)cccc2c1 (stereo not drawn) [Compound E-71, 2-benzyl-4-fluoro-N-(8-fluoro-3-quinolyl)-2-methyl-pent-4-enamide] | 132 to 134 °C | ≥ 80% | ≥ 80% | ≥ 80% | ≥ 80% | ≥ 80% | ≥ 80% | ≥ 80% | – | – | – | – | – | –
C=C(C)CC(C)(Cc1ccccc1)C(=O)Nc1cnc2c(F)cccc2c1 (stereo not drawn) [Compound E-74, 2-benzyl-N-(8-fluoro-3-quinolyl)-2,4-dimethyl-pent-4-enamide] | 147 to 149 °C | – | – | ≥ 80% | ≥ 80% | – | – | ≥ 80% | ≥ 80% | ≥ 80% | ≥ 80% | ≥ 80% | ≥ 80% | –
CC(Cc1ccccc1)(CC1CC1)C(=O)Nc1cnc2c(F)cccc2c1 (stereo not drawn) [Compound E-76, 2-benzyl-3-cyclopropyl-N-(8-fluoro-3-quinolyl)-2-methyl-propanamide] | 157 to 159 °C | ≥ 80% | ≥ 80% | ≥ 80% | ≥ 80% | ≥ 80% | ≥ 80% | – | – | – | – | – | – | ≥ 80%
O=C(Nc1cnc2c(F)cccc2c1)C(Cc1ccccc1)CC(F)(F)F (stereo not drawn) [Compound E-82, 2-benzyl-4,4,4-trifluoro-N-(8-fluoro-3-quinolyl)butanamide] | 161 to 164 °C | ≥ 80% | ≥ 80% | ≥ 80% | ≥ 80% | ≥ 80% | ≥ 80% | ≥ 80% | – | – | – | – | – | –
CC(C)CC(C#N)(Cc1ccccc1)C(=O)Nc1cnc2c(F)cccc2c1 (stereo not drawn) [Compound E-83, 2-benzyl-2-cyano-N-(8-fluoro-3-quinolyl)-4-methyl-pentanamide] | – | ≥ 80% | ≥ 80% | ≥ 80% | ≥ 80% | ≥ 80% | ≥ 80% | ≥ 80% | – | – | – | – | – | –
CC(C)CC(C)(Cc1ccccc1)C(=O)Nc1cnc2ccccc2c1 (stereo not drawn) [Compound E-85, 2-benzyl-2,4-dimethyl-N-(3-quinolyl)pentanamide] | 147 to 148 °C | ≥ 80% | ≥ 80% | ≥ 80% | – | – | ≥ 80% | – | – | – | – | – | – | –
CC(C)CC(C)(Cc1ccccc1)C(=O)Nc1cnc2c(F)cccc2c1 (stereo not drawn) [Compound E-87, 2-benzyl-N-(8-fluoro-3-quinolyl)-2,4-dimethyl-pentanamide] | 140 to 142 °C | ≥ 80% | ≥ 80% | ≥ 80% | ≥ 80% | ≥ 80% | ≥ 80% | ≥ 80% | – | – | ≥ 80% | – | – | –

Source: patent US10952436B2, “Microbiocidal quinoline (thio)carboxamide derivatives” (SYNGENTA PARTICIPATIONS AG, priority 2017, dated 2021)
